Source: article PMC11756644 (ACS chemical biology, 2015)

Target: T1, tPAD1 (Saccharomyces cerevisiae, UniProt P33751)
T1 sequence (P33751 55-242): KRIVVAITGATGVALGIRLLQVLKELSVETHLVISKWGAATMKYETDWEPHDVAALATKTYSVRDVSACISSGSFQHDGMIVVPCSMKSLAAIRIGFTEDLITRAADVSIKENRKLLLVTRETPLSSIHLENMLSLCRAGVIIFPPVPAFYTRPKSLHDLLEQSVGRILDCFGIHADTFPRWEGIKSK
Experiment: UV-visible spectrum of purified protein
Type: binding
Details: co-purified from E. coli; oxidized FMN

Cc1cc2nc3c(=O)[nH]c(=O)nc-3n(C[C@H](O)[C@H](O)[C@H](O)COP(=O)(O)O)c2cc1C [FMN]
UV-visible spectrum of purified protein; LC-ESI-MS of released flavin: The presence of FMN was confirmed by LC-ESI-MS. FMN was released from tPAD1 by precipitation
